# US9629816B2, “Small molecule therapeutic compounds targeting thioesterase deficiency disorders and methods of using the same” (The United States of America, as represented by the …, priority 2011, dated 2017)
# What was measured:
# PPT1-KO mice [1] = test: Western blot of caspase-9 and cleaved PARP-1 in cortical tissue homogenates of PPT1-KO mice; type: in vivo, mouse; conditions: cortical tissue homogenates (FIG. 17)
# Procedure: Western blot analysis was performed as using standard methodology. Briefly 30 μg of protein was resolved in 4-12% Bis tris gel (Invitrogen) and electro-transferred in PVDF membrane. The membranes were blocked with 5% non fat dried milk for 1 hour at room temperature and were then probed overnight with primary antibody at 4 C. After washing the blots were incubated with horseradish peroxidase conjugated secondary antibody (Santacruz Biotechnology) for 1 hour at room temperature and developed using enhanced chemiluminescences detection reagents (Pierce). Primary antibodies used in this study were caspase-3, caspase-9 (cell signaling) SOD2, catalase, β-Actin (US Biologicals).
# It has been reported that postmortem brain tissues from INCL patients as well as those from PPT1-KO mice manifest high levels of oxidative stress, which induces neuronal apoptosis contributing to neuropathology. […] Accordingly, a terminal deoxynucleotidyl transferase dUTP nick end labeling (TUNEL) assay was performed using cortical tissue sections from wild-type, untreated PPT1-KO and NtBuHA-treated PPT1-KO mice to determine the level of apoptosis. […] Quantitative analysis of the NeuN-positive cells in brain tissues from wild-type, untreated and NtBuHA-treated PPT1-KO mice (FIG. 18D) confirmed the visual assessment.
# PPT1-KO mice [2] = test: Open field test, exploratory behavior of PPT1-KO mice; type: in vivo, mouse; conditions: 6-month and 8-month old PPT1-KO mice (FIG. 19E-F)
# Source text: Since NtBuHA functionally mimics PPT1, the inventors tested 6-month and 8-month old wild-type, untreated- and NtBuHA-treated PPT1-KO mice for motor coordination and exploratory behavior. The Rotarod Performance Test, which measures parameters such as riding time (seconds) and/or endurance was used to measure motor coordination. The open field test was utilized to evaluate the exploratory behavior.
# INCL fibroblasts [3] = test: Depletion of [35S]cysteine-labeled lipid thioesters in INCL fibroblasts; type: cell-based, human; conditions: treatment for 24 and 48 hours vs untreated control cells (FIG. 7)
# Procedure: Thus, this derivative was chosen for more extensive study of its ability to hydrolyze […] proteins, and to deplete lipid-extractable [^35S]cysteine thioesters from fibroblasts and lymphoblasts. INCL fibroblasts were obtained and cultured as described in Example 4. The cells were then labeled with [^35S]cysteine. Briefly, following incubation for six hours in medium lacking serum and cysteine/cystine, the cells were washed and then re-cultured for varying lengths of time in medium containing NtBuHA, with a change of medium every 12 hours. As controls, [^35S]cysteine-labeled cells were cultured in drug-free medium as well as medium containing 1M HA. Following incubation, cells were washed twice with cold PBS and then centrifuged at 2,250 g at 4° C. for 5 minutes. Lipid thioesters were then extracted from the cells and subject to analysis by high-performance thin layer chromatography. Briefly, the extracted fatty acyl esters were dissolved in chloroform:methanol (1:1) and an aliquot applied to a TLC plate and resolved using a mixture of chloroform:methanol:water (65:25:4). The plates were then dried and autoradiographs obtained.
# PPT1-KO mice [4] = test: TUNEL assay of cortical tissue sections of PPT1-KO mice; type: in vivo, mouse; conditions: cortical tissue vs untreated PPT1-KO mice (FIG. 16)
# Procedure: It has been reported that postmortem brain tissues from INCL patients as well as those from PPT1-KO mice manifest high levels of oxidative stress, which induces neuronal apoptosis contributing to neuropathology. […] Accordingly, a terminal deoxynucleotidyl transferase dUTP nick end labeling (TUNEL) assay was performed using cortical tissue sections from wild-type, untreated PPT1-KO and NtBuHA-treated PPT1-KO mice to determine the level of apoptosis. […] Since elevated levels of apoptosis in the brain of PPT1-KO mice and INCL patients mediate progressive decline in number of cortical neurons, the inventors also sought to further confirm whether decreased apoptosis in NtBuHA-treated PPT1-KO mice prevented neuronal loss. Accordingly, an immunohistochemical analyses of cortical tissue sections from wild-type, untreated-PPT1-KO, and NtBuHA-treated PPT1-KO mice was performed using antibodies against a neuronal marker, NeuN. […] Quantitative analysis of the NeuN-positive cells in brain tissues from wild-type, untreated and NtBuHA-treated PPT1-KO mice (FIG. 18D) confirmed the visual assessment.
# INCL fibroblasts [5] = test: MTT viability of cultured INCL fibroblasts; type: cell-based, human; conditions: 48 hours of treatment; viability as percent of untreated control (FIG. 4A-C)
# Procedure: Ten out of the twelve HA-derivative compounds listed in Table 1 were tested to determine whether they adversely affected the viability of cultured cells from INCL patients. […] Briefly, following treatment with HA-derivatives INCL cells were incubated with Thiazolyl Blue Tetrazolium […] for 4 hours at 37° C. Formazan crystals thus formed were dissolved in acidified isopropanol and absorption was measured at 570 nm. Viability was expressed as percent of untreated control.
# Briefly, normal fibroblasts (GM 00498) were obtained from the Coriell Institute of Medical Research, USA. PPT1-deficient INCL fibroblasts were isolated from skin biopsy samples of INCL patients admitted to an ongoing clinical protocol (#01-CH-0086) approved by the Institutional Review Board (IRB) of the National Institute of Child Health and Human Development (NICHD) at the National Institute of Health (NIH). […] The fibroblasts were cultured in the presence or absence of varying concentrations of each of the HA-derivatives for 48 hours, after which the viability of the cells was determined using the MTT-Cell Viability Assay by T. Mossman, (Rapid colorimetric assay for cellular growth and survival. J. Immunol. Method. 65 (1983) 55-63).
# INCL lymphoblasts = test: H2O2-induced apoptosis in INCL lymphoblasts (annexin V, FACS); type: cell-based, human; conditions: 1 mM NtBuHA 12 hours
# Procedure: To evaluate whether NtBuHA protects against oxidative stress-induced apoptosis in INCL lymphoblasts the cells were treated with 1 mM NtBuHA for 12 hours and then incubated with 500 μM H2O2 for 3 hours in presence or absence of NtBuHA (1 mM). Untreated INCL lymphoblasts were also treated with H2O2 for 3 hours. For the detection of apoptosis the cells were stained with annexin V using Apoptosis detection kit (Biovision) and analyzed by FACS (Guava EasyCyte Mini System, Millipore).
# Moreover, in these cells antisense-mediated inhibition of PPT1 leads to increased apoptosis. […] In addition, increased neuronal apoptosis in the brain of PPT1-KO mice has also been reported. […] Thus, the inventors sought to determine whether the NtBuHA-treatment protects cultured immortalized INCL lymphoblasts from oxidative-stress mediated apoptosis. Cultured lymphoblasts from INCL patients were chosen because PPT1 is expressed in all tissues and PPT 1-deficiency in cultured lymphoblasts and fibroblasts from INCL patients show virtually identical pathological changes (accumulation of ceroid, GRODs and increased apoptosis) as are found in postmortem neuronal tissues from such patients. […] Apoptosis of the H2O2-treated cells was then quantitated by florescence activated cell sorting (FACS) analysis.
compound,measurement,setting,value
"CC(C)(C)NO [NtBuHA, N-(tert-Butyl)hydroxylamine]",caspase-9 and cleaved PARP-1 level,PPT1-KO mice [1],marked reduction in caspase-9 and cleaved PARP-1 level
same,exploratory behavior (open field),PPT1-KO mice [2],retained near normal motor function (FIG. 19A-D) as well as exploratory behavior
same,intensity of [35S]cysteine-labeled lipid extractable thioester compounds,INCL fibroblasts [3],significantly reduced intensity
same,TUNEL-positive apoptotic cells,PPT1-KO mice [4],appreciably lower levels of TUNEL-positive apoptotic cells
same,toxicity / viability of INCL cells (MTT),INCL fibroblasts [5],non-toxic
same,"H2O2-induced apoptosis, pre- and co-treated cells",INCL lymphoblasts; then 500 μM H2O2 3 hours in presence of NtBuHA (FIG. 15),no alteration in apoptosis above the base level
same,"H2O2-induced apoptosis, pretreated cells",INCL lymphoblasts; then 500 μM H2O2 3 hours without NtBuHA (FIG. 15),failed to induce apoptosis above the base level
